# Measurements as given in patent US20220257706A1, “EPIDERMAL GROWTH FACTOR RECEPTOR (EGFR) LIGANDS” (NANYANG TECHNOLOGICAL UNIVERSITY, priority 2019, published 2022).
# Legend:
# MEK1/2 = assay: Western blot of phosphorylated MEK1/2 in HaCaT cells; type: cell-based, human; details: 5 μM
# Description: (§1) Blot transfer was performed onto a PVDF membrane (GE healthcare, Sweden) at 250 mA for 120 min on ice. The blot was blocked with 5% BSA TBST before incubating overnight at 4° C. with anti-P-MEK1/2 rabbit antibody (1:2000 in 5% BSA TBST; Cell Signaling, US), anti-MEK1/2 rabbit antibody (1:2000 in 5% BSA TBST; Cell Signaling, US), anti-P-ERK1/2 rabbit antibody (1:2000 in 5% BSA TBST; Cell Signaling, US), anti-ERK1/2 rabbit antibody (1:2000 in 5% BSA TBST; Cell Signaling, US), and anti-β-actin mouse antibody (1:10000 in 5% BSA TBST; Merck Millipore, US). After incubation, the membrane was washed with TBST at room temperature three times for 10 min each. The blot was then incubated with secondary anti-mouse or anti-rabbit horseradish peroxidase (HRP) (1:5000 in 5% BSA TBST; Cell Signaling, US) and was incubated for another 1 h at room temperature. The blot was washed five times 10 min each with TBST at room temperature before addition of chemiluminescence substrate (Advansta, US) and exposure on X-ray film (Fujifilm, Japan).
# ERK1/2 = assay: Western blot of phosphorylated ERK1/2 in HaCaT cells; type: cell-based, human; details: 5 μM
# Description: as §1
# Human serum stability = details: 25% human serum
# Description: The test samples were incubated at 37° C. Samples were collected at various time points. The collected samples were subjected to protein precipitation with 100% ethanol and centrifugation at 180,000 g for 5 min at 4° C. The supernatant was collected for analysis.
# All collected samples from various stability assays were analyzed by RP-HPLC with a linear gradient of mobile phase A (0.05% TFA/H2O) and mobile phase B (0.05% TFA/ACN) on aeris peptide XB-C18 column (Phenomenex, US). The resulting peaks were collected and identified by MALDI-TOF MS. The results were expressed as percentage of initial concentration using the peak area of the HPLC profile.
# EGFR = EGFR (Homo sapiens, UniProt P00533); assay: TR-FRET EGFR ligand binding assay (competitive displacement of biotin-EGF); parameters: purchased PerkinElmer
# Description: TR-FRET ratio was measured using a microplate reader in dual emission mode (Excitation: 340 nm, emission: 665 nm and 615 nm) (Cytation 1, US). […] (SEQ ID NO:11) or roseltide rT7 with an amino acid sequence of […] (SEQ ID NO:17) were used as negative control.
# HaCaT cells = assay: EdU incorporation assay (DNA synthesis); type: cell-based, human
# Description: EdU incorporation assay was performed using an EdU proliferative kit (iFluor 488) according to manufacturer's instructions. Briefly, 2.5×10^4 HaCaT cells per well were seeded in a 96-well plate. […] Cells were then fixed, permeabilized, and incubated in a reaction mix containing iFluor 488 for 30 min. The nuclei were stained using DAPI. The plates were visualized using a fluorescence microscope.
# c-Jun = assay: Gene expression analysis (qPCR) of c-Jun in HaCaT cells; type: cell-based, human; details: 2 h treatment
# Description: (§2) Total RNA was extracted from HaCaT and primary human keratinocytes using PureLink™ RNA mini kit (Thermo Fisher Scientific, US). First-strand cDNA was synthesised from 600 ng of total RNA using SuperScript™ II Reverse Transcriptase and Oligo(dT)12-18 (Thermo Fisher Scientific, US) according to the manufacturer's instructions. Quantitative PCR (qPCR) was performed with iTaq Universal SYBR Green Supermix (Bio-Rad, US) on a CFX96 Touch Real-Time PCR Detection System (Bio-Rad, US) for 40 cycles. PCR reaction (20 μL): 3 μL cDNA, 1 μL primer mix (10 μM), 6 μL DEPC-treated water and 10 μL mastermix. […] GAPDH was used as a housekeeping gene for normalization. Fold changes of gene expressions with c-fos and c-Jun were calculated using the 2^−ΔΔCT method.
# c-fos = assay: Gene expression analysis (qPCR) of c-fos in HaCaT cells; type: cell-based, human; details: 2 h treatment
# Description: as §2
# [1] = system: primary human keratinocytes; assay: Primary human keratinocyte proliferation (crystal violet); type: cell-based; details: 72 h, crystal violet assay
# Description: HaCaT (human keratinocyte), HUVEC-CS (endothelial cells) cells were cultured in Dulbecco's modification of Eagle's medium (DMEM) supplemented with 10% fetal bovine serum and 100 U/mL of penicillin and streptomycin. Normal Human Epidermal Keratinocytes adult purchased from Lifeline® cell technology were cultured in Lifeline® DermaLife K Medium. They were grown in a 5% CO2 humidified incubator at 37° C. HaCaT cells were stably transfected with pGL4.33[luc2P/SRE/Hygro] (Promega) and selected using 250 μg/mL hygromycin. Stable HaCaT cells expressing SRE luciferase reporter were maintained with 250 μg/mL hygromycin.
# Cell proliferation was determined using crystal violet staining. […] 3417-Da-peptide aB1 is a CRP isolated from Achyranthes bidentata with the amino acid sequence […] (SEQ ID NO:11). Crystal violet staining was performed as previously described. Briefly, after the incubation period, the wells were fixed with 4% buffered paraformaldehyde for 20 min. The cells were then stained with 0.25% crystal violet in 20% methanol for 15 min. The excess crystal violet stain was rinsed with distilled water for 4-5 times and air-dried. Glacial acetic acid (10%) in Milli-Q water was added to extract the crystal violet stain. The absorbance was then measured at 595 nm using a microplate reader (Tecan Infinite® 200 Pro, Switzerland).
# EGFR, sequence (P00533 25-645 limits assumed): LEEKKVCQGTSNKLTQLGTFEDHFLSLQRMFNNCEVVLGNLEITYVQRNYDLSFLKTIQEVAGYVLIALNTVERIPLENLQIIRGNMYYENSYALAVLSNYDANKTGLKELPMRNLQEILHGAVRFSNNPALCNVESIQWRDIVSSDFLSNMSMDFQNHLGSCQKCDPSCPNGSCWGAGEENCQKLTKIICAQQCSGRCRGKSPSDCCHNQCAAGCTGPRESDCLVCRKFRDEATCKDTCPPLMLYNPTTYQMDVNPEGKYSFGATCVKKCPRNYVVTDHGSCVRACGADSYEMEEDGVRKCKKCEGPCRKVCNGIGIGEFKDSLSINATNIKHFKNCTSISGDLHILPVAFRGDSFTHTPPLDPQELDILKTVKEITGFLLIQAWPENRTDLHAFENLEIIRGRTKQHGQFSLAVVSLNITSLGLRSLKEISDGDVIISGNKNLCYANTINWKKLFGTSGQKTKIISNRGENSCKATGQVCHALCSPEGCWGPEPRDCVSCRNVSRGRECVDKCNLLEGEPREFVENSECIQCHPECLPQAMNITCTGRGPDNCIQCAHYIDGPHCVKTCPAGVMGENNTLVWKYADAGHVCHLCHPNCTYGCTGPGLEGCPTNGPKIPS
smiles,measurement,setting,value
CC[C@H](C)[C@@H]1NC(=O)[C@H](CCC(=O)O)NC(=O)[C@H]([C@@H](C)O)NC(=O)[C@@H]2CSSC[C@@H]3NC(=O)[C@H](Cc4ccccc4)NC(=O)[C@H](CC(N)=O)NC(=O)[C@H](CO)NC(=O)[C@H](CSSC[C@H](NC(=O)[C@@H](N)CCC(N)=O)C(=O)N[C@@H](CCCCN)C(=O)N4CCC[C@H]4C(=O)N[C@@H](CC(N)=O)C(=O)NCC(=O)N[C@@H](C)C(=O)N[C@@H](CCCCN)C(=O)N2)NC(=O)[C@H](CSSC[C@@H](C(=O)N[C@@H](C)C(=O)N[C@@H](CC(N)=O)C(=O)N[C@@H](CCCNC(=N)N)C(=O)O)NC(=O)[C@H]([C@@H](C)O)NC(=O)CNC(=O)[C@H](CO)NC(=O)[C@H](CCCCN)NC(=O)[C@H](CCC(N)=O)NC(=O)CNC(=O)[C@H](C)NC(=O)[C@H](Cc2ccc(O)cc2)NC(=O)[C@H](CCCNC(=N)N)NC(=O)[C@H](CC(C)C)NC3=O)NC(=O)[C@@H]2CCCN2C(=O)[C@@H]2CCCN2C(=O)[C@H]([C@@H](C)CC)NC(=O)[C@H](CO)NC1=O [bleogen pB1],phosphorylation of MEK1/2,MEK1/2,induces the phosphorylation
same,phosphorylation of ERK1/2,ERK1/2,induces the phosphorylation
same,half-life at 0.1 M,Human serum stability,> 33.3 days
same,IC50,EGFR,1720 ± 0.075 nM
same,potency relative to EGF in receptor displacement (fold less potent),EGFR,50-100 fold
same,DNA synthesis of HaCaT cells (EdU incorporation),HaCaT cells,enhances DNA synthesis
same,mRNA expression of c-Jun,c-Jun,significantly upregulate
same,mRNA expression of c-fos,c-fos,significantly upregulate
same,proliferation of primary human keratinocytes,[1],promotes the proliferation
